Test results published in the supplement of paper PMC10307832.

Compound: C[C@@H](Oc1cc(-c2cnn(C3CCNCC3)c2)cnc1N)c1c(Cl)ccc(F)c1Cl [Crizotinib] + CC(C)C[C@H](NC(=O)[C@H](Cc1ccccc1)NC(=O)c1cnccn1)B(O)O [Bortezomib] (partner 0.002 µM)
Experiment: relative viability (nuclei count vs DMSO), 5 days (fraction); higher = more cells survive
Conditions: first compound 0.01 µM
Method in brief: (§1)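 Lung cancer cell lines in 1536-well plates got either a single drug or a fixed anchor-drug dose together with five library-drug doses (not always all listed) in √10 steps, by pin tool, on the day after seeding. Nuclei were counted after 5 days, and relative viability is the treated-to-vehicle ratio of nuclei counts. Values are medians of duplicate plates.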

| Cell Line | relative viability |
| --- | --- |
| NCI-H727 | 0.569 |
| NCI-H838 | 0.806 |
| NCI-H1299 | 1.04 |
| NCI-H1355 | 1.23 |
| NCI-H1437 | 0.48 |
| NCI-H1651 | 0.93 |
| NCI-H1666 | 0.791 |
| NCI-H1703 | 0.365 |
| NCI-H1734 | 1.01 |
| NCI-H1792 | 0.955 |
| NCI-H1915 | 0.98 |
| NCI-H1975 | 0.317 |
| NCI-H1993 | 0.937 |
| NCI-H2009 | 0.896 |
| NCI-H2023 | 0.813 |
| NCI-H2085 | 0.995 |
| NCI-H2087 | 0.773 |
| NCI-H2126 | 1.04 |
| NCI-H2228 | 0.84 |
| NCI-H2347 | 1.02 |
| NCI-H2405 | 1 |
| NCI-H3122 | 0.96 |
| PC-3 [JPC-3] | 0.772 |
| PC-14 | 0.892 |
| RERF-LC-KJ | 1.02 |
| SK-LU-1 | 1.19 |
| UMC-11 | 0.615 |

Same assay, conditions: first compound 0.03162 µM

| Cell Line | relative viability |
| --- | --- |
| NCI-H727 | 0.806 |
| NCI-H838 | 0.695 |
| NCI-H1299 | 1.07 |
| NCI-H1355 | 1.21 |
| NCI-H1437 | 0.553 |
| NCI-H1651 | 0.979 |
| NCI-H1666 | 0.981 |
| NCI-H1703 | 0.301 |
| NCI-H1734 | 0.926 |
| NCI-H1755 | 0.964 |
| NCI-H1792 | 0.983 |
| NCI-H1915 | 0.921 |
| NCI-H1975 | 0.362 |
| NCI-H1993 | 1.05 |
| NCI-H2009 | 1.04 |
| NCI-H2023 | 0.964 |
| NCI-H2085 | 1.22 |
| NCI-H2087 | 1.12 |
| NCI-H2126 | 1.13 |
| NCI-H2228 | 0.874 |
| NCI-H2347 | 0.919 |
| NCI-H2405 | 0.997 |
| NCI-H3122 | 0.942 |
| PC-3 [JPC-3] | 0.948 |
| PC-14 | 0.742 |
| RERF-LC-KJ | 0.951 |
| SK-LU-1 | 1.13 |
| SW 1573 | 1.04 |
| UMC-11 | 0.989 |

Same assay, conditions: first compound 0.1 µM

| Cell Line | relative viability |
| --- | --- |
| NCI-H727 | 1.01 |
| NCI-H838 | 0.968 |
| NCI-H1299 | 1 |
| NCI-H1355 | 1.22 |
| NCI-H1437 | 0.558 |
| NCI-H1651 | 0.939 |
| NCI-H1666 | 0.829 |
| NCI-H1703 | 0.226 |
| NCI-H1734 | 0.87 |
| NCI-H1755 | 0.923 |
| NCI-H1792 | 1.01 |
| NCI-H1915 | 1.06 |
| NCI-H1975 | 0.315 |
| NCI-H1993 | 0.833 |
| NCI-H2009 | 1.09 |
| NCI-H2023 | 0.88 |
| NCI-H2085 | 1.07 |
| NCI-H2087 | 0.952 |
| NCI-H2126 | 1.2 |
| NCI-H2228 | 0.833 |
| NCI-H2347 | 1.15 |
| NCI-H2405 | 1.04 |
| NCI-H3122 | 1.09 |
| PC-3 [JPC-3] | 0.833 |
| PC-14 | 0.905 |
| RERF-LC-KJ | 1.1 |
| SK-LU-1 | 1.46 |
| SW 1573 | 1.04 |
| UMC-11 | 0.695 |

Same assay, conditions: first compound 0.3162 µM

| Cell Line | relative viability |
| --- | --- |
| NCI-H727 | 0.962 |
| NCI-H838 | 0.863 |
| NCI-H1299 | 1.02 |
| NCI-H1355 | 1.1 |
| NCI-H1437 | 0.434 |
| NCI-H1651 | 0.815 |
| NCI-H1666 | 0.796 |
| NCI-H1703 | 0.319 |
| NCI-H1755 | 0.87 |
| NCI-H1792 | 0.931 |
| NCI-H1975 | 0.373 |
| NCI-H1993 | 0.899 |
| NCI-H2009 | 0.837 |
| NCI-H2023 | 0.647 |
| NCI-H2085 | 1.02 |
| NCI-H2087 | 0.685 |
| NCI-H2228 | 0.647 |
| NCI-H2347 | 0.95 |
| NCI-H2405 | 1.09 |
| NCI-H3122 | 0.889 |
| PC-3 [JPC-3] | 0.878 |
| PC-14 | 0.805 |
| RERF-LC-KJ | 1 |
| SK-LU-1 | 0.794 |
| SW 1573 | 1.19 |
| UMC-11 | 0.199 |

Same assay, conditions: first compound 1 µM

| Cell Line | relative viability |
| --- | --- |
| NCI-H727 | 0.988 |
| NCI-H1299 | 0.996 |
| NCI-H1355 | 1.24 |
| NCI-H1437 | 0.494 |
| NCI-H1651 | 0.924 |
| NCI-H1666 | 0.912 |
| NCI-H1703 | 0.322 |
| NCI-H1734 | 1.07 |
| NCI-H1755 | 0.991 |
| NCI-H1792 | 0.917 |
| NCI-H1915 | 0.963 |
| NCI-H1975 | 0.404 |
| NCI-H1993 | 0.76 |
| NCI-H2009 | 0.96 |
| NCI-H2023 | 0.806 |
| NCI-H2085 | 1.02 |
| NCI-H2087 | 0.808 |
| NCI-H2126 | 1.16 |
| NCI-H2228 | 0.346 |
| NCI-H2347 | 1.14 |
| NCI-H3122 | 0.989 |
| PC-3 [JPC-3] | 0.837 |
| PC-14 | 0.961 |
| RERF-LC-KJ | 1.09 |
| SK-LU-1 | 1.3 |
| SW 1573 | 0.836 |
| UMC-11 | 0.9 |

Compound: CC(C)C[C@H](NC(=O)[C@H](CCc1ccccc1)NC(=O)CN1CCOCC1)C(=O)N[C@@H](Cc1ccccc1)C(=O)N[C@@H](CC(C)C)C(=O)[C@@]1(C)CO1 [Carfilzomib] + O=C(c1cc(Cc2n[nH]c(=O)c3ccccc23)ccc1F)N1CCN(C(=O)C2CC2)CC1 [Olaparib] (partner 8 µM)
Experiment: as above
Conditions: first compound 0.001 µM
Method in brief: as §1

| Cell Line | relative viability |
| --- | --- |
| NCI-H727 | 0.705 |
| NCI-H838 | 0.79 |
| NCI-H1299 | 0.964 |
| NCI-H1355 | 0.732 |
| NCI-H1437 | 0.629 |
| NCI-H1651 | 0.184 |
| NCI-H1666 | 0.757 |
| NCI-H1703 | 0.44 |
| NCI-H1734 | 0.649 |
| NCI-H1755 | 0.978 |
| NCI-H1915 | 0.292 |
| NCI-H1975 | 0.828 |
| NCI-H1993 | 0.984 |
| NCI-H2009 | 0.736 |
| NCI-H2023 | 0.484 |
| NCI-H2085 | 0.771 |
| NCI-H2087 | 0.589 |
| NCI-H2126 | 0.897 |
| NCI-H2228 | 0.838 |
| NCI-H2347 | 0.502 |
| NCI-H2405 | 0.836 |
| NCI-H3122 | 0.654 |
| PC-3 [JPC-3] | 1.17 |
| PC-14 | 0.281 |
| RERF-LC-KJ | 1.05 |
| SK-LU-1 | 0.421 |
| SW 1573 | 0.587 |
| UMC-11 | 0.342 |

Same assay, conditions: first compound 0.003162 µM

| Cell Line | relative viability |
| --- | --- |
| NCI-H727 | 0.751 |
| NCI-H838 | 0.799 |
| NCI-H1299 | 0.998 |
| NCI-H1355 | 0.777 |
| NCI-H1437 | 0.666 |
| NCI-H1651 | 0.188 |
| NCI-H1666 | 0.782 |
| NCI-H1703 | 0.493 |
| NCI-H1734 | 0.679 |
| NCI-H1755 | 0.934 |
| NCI-H1792 | 0.41 |
| NCI-H1915 | 0.265 |
| NCI-H1975 | 0.825 |
| NCI-H1993 | 1.11 |
| NCI-H2009 | 0.732 |
| NCI-H2023 | 0.521 |
| NCI-H2085 | 0.739 |
| NCI-H2087 | 0.783 |
| NCI-H2126 | 1.01 |
| NCI-H2228 | 0.813 |
| NCI-H2347 | 0.587 |
| NCI-H2405 | 0.946 |
| NCI-H3122 | 0.611 |
| PC-3 [JPC-3] | 1.16 |
| PC-14 | 0.334 |
| RERF-LC-KJ | 0.898 |
| SK-LU-1 | 0.54 |
| SW 1573 | 0.487 |
| UMC-11 | 0.326 |

Same assay, conditions: first compound 0.01 µM

| Cell Line | relative viability |
| --- | --- |
| NCI-H727 | 0.859 |
| NCI-H838 | 0.785 |
| NCI-H1299 | 0.933 |
| NCI-H1355 | 0.754 |
| NCI-H1437 | 0.645 |
| NCI-H1651 | 0.167 |
| NCI-H1666 | 0.75 |
| NCI-H1703 | 0.124 |
| NCI-H1734 | 0.666 |
| NCI-H1755 | 0.875 |
| NCI-H1792 | 0.633 |
| NCI-H1915 | 0.248 |
| NCI-H1975 | 0.393 |
| NCI-H1993 | 1.1 |
| NCI-H2009 | 0.729 |
| NCI-H2023 | 0.486 |
| NCI-H2085 | 0.749 |
| NCI-H2087 | 0.374 |
| NCI-H2126 | 0.957 |
| NCI-H2228 | 0.61 |
| NCI-H2347 | 0.564 |
| NCI-H2405 | 0.915 |
| NCI-H3122 | 0.609 |
| PC-3 [JPC-3] | 1.18 |
| PC-14 | 0.243 |
| RERF-LC-KJ | 0.91 |
| SK-LU-1 | 0.438 |
| SW 1573 | 0.215 |
| UMC-11 | 0.315 |

Same assay, conditions: first compound 0.03162 µM

| Cell Line | relative viability |
| --- | --- |
| NCI-H727 | 0.62 |
| NCI-H838 | 0.126 |
| NCI-H1299 | 0.191 |
| NCI-H1355 | 0.62 |
| NCI-H1437 | 0.419 |
| NCI-H1651 | 0.101 |
| NCI-H1666 | 0.709 |
| NCI-H1703 | 0.1 |
| NCI-H1734 | 0.547 |
| NCI-H1755 | 0.609 |
| NCI-H1792 | 0.393 |
| NCI-H1915 | 0.247 |
| NCI-H1975 | 0.123 |
| NCI-H1993 | 1.04 |
| NCI-H2009 | 0.631 |
| NCI-H2023 | 0.133 |
| NCI-H2085 | 0.372 |
| NCI-H2087 | 0.0505 |
| NCI-H2126 | 0.746 |
| NCI-H2228 | 0.0953 |
| NCI-H2347 | 0.503 |
| NCI-H2405 | 0.699 |
| NCI-H3122 | 0.452 |
| PC-3 [JPC-3] | 0.652 |
| PC-14 | 0.0393 |
| RERF-LC-KJ | 0.379 |
| SK-LU-1 | 0.198 |
| SW 1573 | 0.0532 |
| UMC-11 | 0.347 |

Same assay, conditions: first compound 0.1 µM

| Cell Line | relative viability |
| --- | --- |
| NCI-H727 | 0.242 |
| NCI-H838 | 0.109 |
| NCI-H1299 | 0.116 |
| NCI-H1355 | 0.118 |
| NCI-H1437 | 0.171 |
| NCI-H1651 | 0.0957 |
| NCI-H1666 | 0.528 |
| NCI-H1703 | 0.129 |
| NCI-H1734 | 0.113 |
| NCI-H1755 | 0.343 |
| NCI-H1792 | 0.0411 |
| NCI-H1915 | 0.058 |
| NCI-H1975 | 0.118 |
| NCI-H1993 | 0.407 |
| NCI-H2009 | 0.0565 |
| NCI-H2023 | 0.0615 |
| NCI-H2085 | 0.244 |
| NCI-H2087 | 0.0285 |
